Values after ≈ are worked out from the molar mass of the structure shown. Like-named read-outs stand apart in the source and are kept apart here. Where a SMILES comes first, the peptide text is derived from it. Bridges are numbered along the chain shown (N, C = ends). [ ]: non-standard residue; d: D form. Dab = NCC[C@H](N)C(=O)O
Columns and labels:
PAM1723 cells = assay: EtBr uptake (proton gradient disruption); format: cell-based, Pseudomonas aeruginosa; details: CCCP 50 μg/ml for 15 minutes, pentamidine 80 μg/ml
Procedure: A proton gradient is necessary for efflux pump activity. Accordingly, compounds that are capable of proton gradient disruption will appear as efflux inhibitors in accumulation assays. This possibility was tested for pentamidine. EtBr is a substrate of the MexAB-OprM efflux pump from P. aeruginosa as evident from the differential rates of its uptake in PAM 1723 and PAM 1626, MexAB-OprM overexpressing or lacking strains, respectively. CCCP is a well-known protonophore, which rapidly dissipates the proton gradient.

[1] = test system: P. aeruginosa PAM1491 (MexEF-OprN; gyrA (Asp87Tyr)); assay: microbe, parasite or virus in culture; format: cell-based, Pseudomonas aeruginosa; details: Pseudomonas aeruginosa
Text: (§1) In addition to increased efflux, resistance to fluoroquinolones may be due to target mutations (gyrase and topoisimerase IV) or due to combination of these two resistance mechanisms in a single bacterial cell.

[2] = test system: P. aeruginosa PAM1570 (MexEF-OprN; gyrA (Thr83Ile)); assay: microbe, parasite or virus in culture; format: cell-based, Pseudomonas aeruginosa; details: Pseudomonas aeruginosa
Text: as §1

[3] = test system: P. aeruginosa PAM1032 (MexAB-OprM); assay: microbe, parasite or virus in culture; format: cell-based, Pseudomonas aeruginosa; details: Pseudomonas aeruginosa
Text: as §1

[4] = test system: P. aeruginosa PAM1034 (MexEF-OprN); assay: microbe, parasite or virus in culture; format: cell-based, Pseudomonas aeruginosa; details: Pseudomonas aeruginosa
Text: as §1

[5] = test system: P. aeruginosa PAM1569 (MexCD-OprJ; gyrA (Thr83Ile)); assay: microbe, parasite or virus in culture; format: cell-based, Pseudomonas aeruginosa; details: Pseudomonas aeruginosa
Text: as §1

[6] = test system: P. aeruginosa PAM1482 (MexCD-OprJ; gyrA (Asp87Tyr)); assay: microbe, parasite or virus in culture; format: cell-based, Pseudomonas aeruginosa; details: Pseudomonas aeruginosa
Text: as §1

[7] = test system: P. aeruginosa PAM1020 (pump status none; target mutation none); assay: microbe, parasite or virus in culture; format: cell-based, Pseudomonas aeruginosa; details: Pseudomonas aeruginosa
Text: as §1

[8] = test system: P. aeruginosa PAM1033 (MexCD-OprJ); assay: microbe, parasite or virus in culture; format: cell-based, Pseudomonas aeruginosa; details: Pseudomonas aeruginosa
Text: as §1

[9] = test system: P. aeruginosa PAM1548 (pump status none; gyrA (Thr83Ile)); assay: microbe, parasite or virus in culture; format: cell-based, Pseudomonas aeruginosa; details: Pseudomonas aeruginosa
Text: as §1

[10] = test system: P. aeruginosa PAM1154 (MexAB-OprM deleted); format: cell-based, Pseudomonas aeruginosa
[11] = test system: P. aeruginosa PAM1723 (MexAB-OprM overexpressed); format: cell-based, Pseudomonas aeruginosa
[12] = test system: P. aeruginosa PAM2281 (MexAB-OprM, MexEF-OprN); assay: microbe, parasite or virus in culture; format: cell-based, Pseudomonas aeruginosa; details: Pseudomonas aeruginosa
Procedure: (§2) A set of strains that simultaneously over-expressed pairs or triplicates of pumps, e.g. PAM2302 and PAM2303 was tested. Simultaneous over-expression of efflux pumps has been recently detected in clinical strains.

[13] = test system: P. aeruginosa PAM1438 (MexAB-OprM, MexCD-OprJ); assay: microbe, parasite or virus in culture; format: cell-based, Pseudomonas aeruginosa; details: Pseudomonas aeruginosa
Procedure: as §2

[14] = test system: P. aeruginosa PAM2302 (MexAB-OprM, MexCD-OprJ, MexEF-OprN); assay: microbe, parasite or virus in culture; format: cell-based, Pseudomonas aeruginosa; details: Pseudomonas aeruginosa
Procedure: as §2

[15] = test system: P. aeruginosa PAM2282 (MexAB-OprM, MexEF-OprN); assay: microbe, parasite or virus in culture; format: cell-based, Pseudomonas aeruginosa; details: Pseudomonas aeruginosa
Procedure: as §2

[16] = test system: P. aeruginosa PAM2466 (MexAB-OprM, MexXY-OprM); assay: microbe, parasite or virus in culture; format: cell-based, Pseudomonas aeruginosa; details: Pseudomonas aeruginosa
Procedure: as §2

[17] = test system: P. aeruginosa PAM1723 (nalB, overexpressing MexAB-OprM); assay: microbe, parasite or virus in culture; format: cell-based, Pseudomonas aeruginosa; details: Pseudomonas aeruginosa, read-out: Levofloxacin MIC in the presence of inhibitor, PAM1723; inhibitor 0 μg/ml
Procedure: Stock solutions were further diluted, according to the needs of a particular assay, in Mueller Hinton Broth (MHB). Stock solution was stored at −80° C.
The checkerboard assay was performed in microtiter plates. […] The result of these manipulations is that each well of the microtiter plate contains a unique combination of concentrations of the two agents. The assay was performed in MHB with a final bacterial inoculum of 5×10^5 CFU/ml (from an early-log phase culture). Microtiter plates were incubated during 20 h at 35° C. and were read using a microtiterplate reader (Molecular Devices) at 650 nm as well as visual observation using a microtiter plate reading mirror.
The test organisms used was PAM1020, which is a wild type strain of P. aeruginosa expressing the basal level of MexAB-OprM, as well as PAM1723, PAM1738, and PAM1753, overexpressing the MexAB-OprM, MexCD-OprJ, and MexEF-OprN pump, respectively.
Efflux pump inhibitory activity of several commercially available diamidine analogs was evaluated using the checkerboard assay of Example 1 against the strain of P. aeruginosa overexpressing the MexAB-OprM efflux pump.

[18] = test system: 108 recent clinical isolates of P. aeruginosa obtained from cystic fibrosis patients; assay: Susceptibility of cystic fibrosis clinical isolates (broth-micro-dilution, NCCLS); format: cell-based, Pseudomonas aeruginosa; details: 108 CF isolates; combinations with 20 μg/ml of pentamidine
[19] = test system: outer membrane of P. aeruginosa strain PAM2005; details: Mg2+ free buffer, nitrocefin 64 μg/ml
[20] = read-out: Ciprofloxacin MIC w/o pentamidine
[21] = read-out: Levofloxacin MIC w/o pentamidine

## N#CC(C#N)=NNc1cccc(Cl)c1 [CCCP]
PAM1723 cells
  EtBr uptake: dramatic increase of EtBr uptake

## O=C(O)c1cn(C2CC2)c2cc(N3CCNCC3)c(F)cc2c1=O [Ciprofloxacin, ciprofloxacin]
[1]; [20]
  MIC: 8 µg/mL
[2]; [20]
  MIC: 16 µg/mL
[3]; [20]
  MIC: 0.5 µg/mL
[4]; [20]
  MIC: 1 µg/mL
[5]; [20]
  MIC: 16 µg/mL
[6]; [20]
  MIC: 8 µg/mL
[7]; [20]
  MIC: 0.06 µg/mL
[8]; [20]
  MIC: 1 µg/mL
[9]; [20]
  MIC: 2 µg/mL
[10]
  MIC, No Pentamidine: 0.008 µg/mL (≈ 0.0241 µM)
[11]; PAM1723 (MexAB-OprM overexpressed)
  MIC, No Pentamidine: 0.25 µg/mL (≈ 0.754 µM)
[11]; PAM1723 (MexAB-OprM overexpressed), in the presence of pentamidine 40 μg/ml
  MIC, Pentamidine (40 μg/ml): 0.03
[11]; PAM1723, pentamidine 40 μg/ml
  decrease of the MIC by pentamidine: 8 fold
[12]; [20]
  MIC: 8 µg/mL (≈ 24.1 µM)
[13]; [20]
  MIC: 16 µg/mL (≈ 48.3 µM)
[14]; [20]
  MIC: 2 µg/mL (≈ 6.04 µM)
[15]; [20]
  MIC: 2 µg/mL (≈ 6.04 µM)
[16]; [20]
  MIC: 0.5 µg/mL (≈ 1.51 µM)

## C[C@H]1COc2c(N3CCN(C)CC3)c(F)cc3c(=O)c(C(=O)O)cn1c23 [Levofloxacin, levofloxacin]
[1]; [21]
  MIC: 32 µg/mL
[2]; [21]
  MIC: 32 µg/mL
[3]; [21]
  MIC: 2 µg/mL
[4]; [21]
  MIC: 4 µg/mL
[5]; [21]
  MIC: 32 µg/mL
[6]; [21]
  MIC: 16 µg/mL
[7]; [21]
  MIC: 0.25 µg/mL
[8]; [21]
  MIC: 4 µg/mL
[9]; [21]
  MIC: 2 µg/mL
[17]
  MIC: 2 µg/mL
[18]
  MIC50: 2 µg/mL
  MIC90: 8 µg/mL
[12]; [21]
  MIC: 8 µg/mL (≈ 22.1 µM)
[13]; [21]
  MIC: 4 µg/mL (≈ 11.1 µM)
[14]; [21]
  MIC: 8 µg/mL (≈ 22.1 µM)
[15]; [21]
  MIC: 8 µg/mL (≈ 22.1 µM)
[16]; [21]
  MIC: 2 µg/mL (≈ 5.53 µM)

## CC(C)C[C@@H]1NC(=O)[C@@H](Cc2ccccc2)NC(=O)[C@H](CCN)NC(=O)[C@@H](NC(=O)[C@H](CCN)NC(=O)[C@@H](N)[C@@H](C)O)CCNC(=O)[C@H]([C@@H](C)O)NC(=O)[C@H](CCN)NC(=O)[C@H](CCN)NC1=O [PMBN] (H-T[Dab][Dab][Dab][dF]L[Dab][Dab]T; lactam 3-C; N-terminus assumed)
[19]
  IC50, permeabilization of the outer membrane: < 2 µg/mL

Source: patent US7947741B2, “Use and administration of bacterial efflux pump inhibitors” (Mpex Pharmaceuticals, Inc., priority 2004, dated 2011)
